Test results as given in PMC9208212, “Comparison of anti-cancer effects of novel protein disulphide isomerase (PDI) inhibitors in breast cancer cells characterized by high and low PDIA17 expression” (Cancer Cell International, 2022).

What was measured:
MCF-7 cells [1] = assay: Cancer cell adhesion to collagen type I, MCF-7; type: cell-based; conditions: Homo sapiens, MCF7
Description: (§1) Detailed procedures for the cancer cell adhesion studies are described in Additional file 1: Methods.
(§2) Briefly, 96-well plates (Corning, Tewksbury, MA, USA) were coated with collagen type I at a concentration of 10 μg/mL (Sigma-Aldrich, Steinheim, Germany) and incubated at 4°C overnight. After 24 h, the plates were blocked with 1% bovine serum albumin (BSA) (Sigma-Aldrich, Steinheim, Germany) in DPBS buffer (Gibco, Scotland, UK) for 60 minutes at 37°C. […] Then, cancer cells were left to adhere to collagen I for 30 min at 37°C. Non-adherent cells were gently washed twice with DPBS, and attached cells were counted in nine randomly selected visual fields for each well using a CQ1 image cytometer (Yokogawa, Tokyo, Japan). Experiments were conducted twice in six technical replicates. The images were analyzed using Columbus 2.4.2 software (Perkin Elmer, Waltham, MA, USA).

MDA-MB-231 cells [2] = assay: MTT cell viability assay, MDA-MB-231; type: cell-based; conditions: Homo sapiens; MDA-MB-231 (low PDIA17), 72 h; read-out: IC50, MTT proliferation
Description: (§3) The proliferation rate of the cells was measured using an MTT assay. (see Additional file 1: Methods for details). IC50 parameter was determined as previously described.
(§4) The proliferation rate of the cells was measured using an MTT assay. The cells were seeded on 96-well plates (Sarstedt, Warsaw, Poland) at a density of MDA-MB-231, BALB/3T3 and MCF10A 1×10^4 cells/well, MCF-7 0.75×10^4 cells/well. Cells were incubated in the appropriate culture medium for 24 h before adding the tested compounds. Cells were then treated with each compound in four concentrations in the range 100–0.1 µg/mL. […] Absorbance was measured using a Bio Tek Hybrid H4 reader (BioTek Instruments, USA) at 570 nm wavelength.
(§5) Compounds at each concentration were tested in triplicate in a single experiment, and each experiment was repeated at least three times independently.

PDIA17 = target: T1, PDIA17 (Homo sapiens, UniProt O95994); assay: Insulin reduction turbidimetry assay, PDIA17; type: biochemical
T1 construct: PDIA17 (recombinant protein ab64013, human, full length, E.coli, Abcam, Cambridge); purchased Abcam ab64013; host or cells: E. coli
T1 sequence (O95994 21-175): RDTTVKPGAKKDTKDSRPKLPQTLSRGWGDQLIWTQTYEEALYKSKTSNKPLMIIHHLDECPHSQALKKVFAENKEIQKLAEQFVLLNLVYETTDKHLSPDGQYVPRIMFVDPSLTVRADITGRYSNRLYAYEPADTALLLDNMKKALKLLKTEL
Description: The PDI inhibitor activity towards PDIA1, PDIA3 and PDIA17 was assessed as an increase in disulphide bond reduction in human insulin in the presence of DL-dithiotreitol (DTT) causing aggregation of its β-chain, analyzed by turbidimetry as presented earlier by Kalvins et al. and Chlopicki et al. (see Additional file 1: Methods for more details).
The PDI inhibitors’ activity towards PDIA1, PDIA3 and PDIA17 was assessed as an increase in disulphide bond reduction in human insulin in the presence of DTT causing aggregation of its β-chain, analyzed by turbidimetry as presented earlier by Kalvins et al. 2021 and Chlopicki et al., 2021. Briefly, the assay mixture for 96-well plates was prepared by dissolving in […] phosphate buffer (pH 7.6 for activity testing of PDIA1, PDIA3 and pH 8.0 for PDIA17), 6 µg/ml (96 nM) of PDIA1 (recombinant protein MBS9422429, human, full length, 18-508aa His-tag, E.coli, MyBioSource, San Diego, CA, USA), PDIA3 (recombinant protein MBS203583, 25-505aa, human, His-tag, E.coli, MyBioSource, San Diego, CA, USA) or PDIA17 (recombinant protein ab64013, human, full length, E.coli, Abcam, Cambridge), 2 mM EDTA and 0.08 mM DTT (D9779 Sigma-Aldrich, Steinheim, Germany). Stock solutions of C-3353, C-3380, C-3389 and C-3399 were freshly prepared in dimethyl sulfoxide (DMSO) and subsequently diluted to keep the final DMSO concentration in the assay mixture below 1%. Calculated amounts of compounds solutions were added into test wells, and the reaction was started by the addition of insulin (insulin 91077C, human recombinant; Sigma-Aldrich, Steinheim, Germany) and 0.08 mM of DTT. The final concentration of insulin and DTT in the assay mixture was 0.15 and 0.16 mM, respectively. The reaction rate was monitored at 650 nm on a Microplate Reader Infinite M1000 PRO for 60 minutes at 37°C. Turbidity values for the wells containing only the PDI isoform tested (background values) were subtracted from the turbidity values of the wells containing the tested PDI isoform and selected inhibitors. […]

MDA-MB-231 cells [3] = assay: Cancer cell adhesion to collagen type I, MDA-MB-231; type: cell-based; conditions: Homo sapiens
Description: as §1, §2

[4] = MTT cytotoxicity against regular cell line BALB/3T3; type: cell-based; conditions: balb/3t3 cells, BALB/3T3 mouse fibroblasts, read-out: IC50, cytotoxicity against regular cell line
Description: as §3
(§6) To test cytotoxicity of compounds used in this study against regular cell lines, BALB/3T3 and MCF10A cells were used, mouse fibroblast and human breast epithelial cell line, respectively.
as §4, §5

PDIA3 = conditions: recombinant human PDIA3, insulin/DTT turbidimetry, pH 7.6; cited from earlier work
[5] = MTT cytotoxicity against regular cell line MCF10A; type: cell-based; conditions: MCF10A human breast epithelial cells, read-out: IC50, cytotoxicity against regular cell line
Description: as §3, §6, §4, §5

MCF-7 cells [6] = assay: MTT cell viability assay, MCF-7; type: cell-based; conditions: Homo sapiens, MCF7; MCF-7 (high PDIA17), 72 h; read-out: IC50, MTT proliferation
Description: as §3, §4, §5

MDA-MB-231 cells [7] = assay: ECIS wound healing migration assay, MDA-MB-231; type: cell-based; conditions: Homo sapiens, tested 10, 30, 100 µM, read-out: Concentration effectively inhibiting migration (ECIS wounding assay)
Description: (§7) The migration of MCF-7 and MDA-MB-231 cells was monitored using real-time quantitative wound healing assays and 96W1E + ECIS arrays (Applied Biophysics, Troy, NY, USA) according to the procedure reported by Stojak et al. with minor modifications and C-3353 inhibitor as a tested compound. Detailed procedures for the ECIS studies are described in Additional file 1: Methods.
(§8) The migration of MCF-7 and MDA-MB-231 cells was monitored using real-time quantitative wound healing assays and 96W1E+ ECIS arrays (Applied Biophysics, Troy, NY, USA) according to the procedure reported by Stojak et al. (2020) with minor modifications. To this end, MDA-MB-231 cells were seeded at a density of 3 × 10^4 per well and MCF-7 cells at a density of 6 × 10^4 cells per well. Before the cell seeding procedure, the 96W1E+ plate was pretreated with 10 mM L-cysteine (Sigma-Aldrich, Steinheim, Germany) according to the manufacturer’s instruction. Immediately after cell seeding, resistance (Ω), capacitance (µF) and impedance (Ω) measurements were initiated at frequencies from 250 Hz to 64 kHz (250, 500, 1000, 2000, 4000, 8000, 16,000, 32,000 and 64,000 Hz) using the multiple frequency time mode. […] The healing process was measured continuously as cells migrated onto the electrode. The area under the curve (AUC) was quantified and normalized to the untreated control. […]

MCF-7 cells [8] = assay: ECIS wound healing migration assay, MCF-7; type: cell-based; conditions: Homo sapiens, MCF7, tested 10, 30, 100 µM, read-out: Concentration substantially reducing migration rate (ECIS wounding assay)
Description: as §7, §8

PDIA1 = conditions: recombinant human PDIA1, insulin/DTT turbidimetry, pH 7.6; cited from earlier work

SMILES	minimal effective concentration (MCF-7 cells [1]; MCF-7, read-out: Concentration inhibiting adhesion to collagen) [µM]	IC50 (MDA-MB-231 cells [2]) [µM]	IC50 (PDIA17) [µM]	minimal effective concentration (MDA-MB-231 cells [3]; MDA-MB-231, read-out: Concentration inhibiting adhesion to collagen) [µM]	CC50 at 72 h [4] [µM]	IC50 (PDIA3) [µM]	IC50 PDIA3 (PDIA3)	CC50 at 72 h [5] [µM]	IC50 (MCF-7 cells [6]) [µM]	minimal effective concentration (MDA-MB-231 cells [7]) [µM]	minimal effective concentration (MCF-7 cells [8]) [µM]	IC50 (PDIA1) [nM]	IC50 PDIA1 (PDIA1)	activity at 3 µM (MCF-7 cells [1]; MCF-7, inhibitor 3 µM) [%]	IC50 PDIA17 (PDIA17; recombinant human PDIA17, insulin/DTT turbidimetry, pH 8.0, n.a. = not active in range of concentrations used)	activity at 10 µM (MDA-MB-231 cells [3]; MDA-MB-231, inhibitor 10 µM) [%]
COC(=O)C1CN1S(=O)(=O)c1ccc(F)cc1F (stereo not drawn) [Inhibitor C-3353]	3	87.4 ± 9.42	20.1	50	> 360	143	not on PDIA3	75.6 ± 4.05	22.5 ± 6.42	100	≥ 30	5000	inhibitory effect on PDIA1	–	–	–
COC(=O)C1CN1S(=O)(=O)c1ccc2c(N(C)C)cccc2c1 (stereo not drawn) [Inhibitor C-3399]	–	8.69 ± 0.89	> 200	–	38.2 ± 10.3	4	low micromolar range	17.9 ± 1.15	11.1 ± 0.78	–	–	120	–	~50	not effective	~75
